# Reference: patent US20160002141A1, “SYNTHESIS OF CALEBIN-A AND ITS BIOLOGICALLY ACTIVE ANALOGS” (priority 2014, published 2016)
row,melting point [°C],SMILES
1,138 to 140,"COc1cc(/C=C/C(=O)COC(=O)/C=C/c2ccc(O)c(OC)c2)ccc1O [Example 10a, Feruloylmethyl ferulate]"
2,175.7 to 177.7,"COc1cc(/C=C/C(=O)OCC(=O)/C=C/c2ccc(O)cc2)ccc1O [Example 10c, 4-Hydroxycinnamoylmethyl ferulate]"
3,289 to 291,"O=C(/C=C/c1ccc(O)cc1)COC(=O)/C=C/c1ccc(O)cc1 [Example 10d, 4-Hydroxycinnamoylmethyl 4-hydroxycinnamate]"
4,181.4 to 183.4,"COc1cc(/C=C/C(=O)COC(=O)/C=C/c2ccc(O)cc2)ccc1O [Example 10b, Feruloylmethyl 4-hydroxycinnamate]"
